{
  "source": "patent US20110212853A1",
  "about": "“NOVEL DIAGNOSTIC METHOD” (PROBIODRUG AG, priority 2010, published 2011)",
  "key": {"[1]": {"system": "A549 cells", "assay": "hMCP-1 N1pE/hMCP-1 ratio by ELISA in TNFα+IL1β stimulated A549 treated with QCI", "type": "cell-based, human", "settings": "24 h, different QCI concentrations", "method": "(§1) To capture human MCP-1, commercially available polyclonal antiserum goat anti-hMCP1-AF (R&D Systems, Minneapolis, USA) as capture antibody which specifically binds human MCP-1 was diluted in PBS to 250 ng/ml and immobilized in polystyrene 96-well microtitre plates overnight at 4° C. Thereafter, blocking occurred for 2 hours at room temperature with ELISA Blocker (Thermo Fisher Scientific, Waltham, USA). For preparation of the standard curve recombinant hMCP-1 was incubated with recombinant human Glutaminyl Cyclase (QC) in order to obtain hMCP-1 N1pE. The recombinant hMCP-1 N1pE standard peptide was serially diluted with ELISA Blocker from 1000 pg/ml down to 15.63 pg/ml and added to the wells in duplicate. Two wells filled with ELISA Blocker represent the standard curve value 0 pg/ml. After an incubation period of 2 hours at room temperature, plates were washed at least three times with TBS-T. For detection of hMCP-1 N1pE, the MCP-1 N1pE antibody clone 348-2C9 together with HRP-conjugated anti mouse antibody were both diluted in blocking buffer to final concentrations of 500 ng/ml. For detection of hMCP-1, the antibody mouse anti hMCP-1 (Peprotech, Hamburg, Germany) together with HRP-conjugated anti mouse antibody were also both diluted in blocking buffer to final concentrations of 500 ng/ml. The detection antibody/conjugate solutions were incubated for 2 hours at room temperature. Following several washes with TBS-T a colour reaction with commercially available HRP substrate TMB (SureBlue Reserve TMB Microwell Peroxidase Substrate (1-component), KPL, Gaithersburg, USA) was performed (30 minutes incubation at room temperature in the dark) and subsequently stopped by the addition of 1,2N H2SO4. Absorption at 450/540 nm was determined by a Tecan Sunrise plate reader.\nA549 cells were stimulated for 24 h with 10 ng/ml TNFα and IL1β. Furthermore, QCI was applied in different concentrations to the cells. After 24 h cell culture supernatants were analyzed according to the protocol in Example 7."}, "[2]": {"system": "RAW 264.7 cells", "assay": "mMCP-1 N1pE/mMCP-1 ratio by ELISA in LPS stimulated RAW 264.7 treated with QCI", "type": "cell-based, mouse", "settings": "RAW 264.7, 10 ng/ml LPS, 24 h, different QCI concentrations", "method": "To capture mouse MCP-1, commercially available polyclonal antiserum rabbit anti mJE (Peprotech, Hamburg, Germany) as capture antibody which specifically binds mouse MCP-1 was diluted in PBS to 500 ng/ml and immobilized in polystyrene 96-well microtitre plates over 4-7 nights at 4° C. Thereafter, blocking occurred for 2 hours at room temperature with ELISA Blocker (Thermo Fisher Scientific, Waltham, USA). For preparation of the standard curve recombinant mMCP-1 was incubated with mouse Glutaminyl Cyclase (QC) in order to obtain mMCP-1 N1pE. The recombinant mMCP-1 N1pE standard peptide was serially diluted with ELISA Blocker from 1950 pg/ml down to 19.5 pg/ml and added to the wells in duplicate. Two wells filled with ELISA Blocker represent the standard curve value 0 pg/ml. After an incubation period of 2 hours at room temperature, plates were washed at least three times with TBS-T. For detection of mMCP-1 N1pE, the MCP-1 N1pE antibody clone 348-2C9 together with HRP-conjugated anti mouse antibody were both diluted in ELISA Blocker to final concentrations of 500 ng/ml. […] Absorption at 450/540 nm was determined by a Tecan Sunrise plate reader.\nIn order to analyse the effect of QCI on the ratio of mouse MCP-1 N1pE/mouse MCP-1, the mouse macrophage cell line RAW 264.7 was stimulated with LPS in the absence or presence of increasing concentrations of the QC inhibitor QCI. […] After 24 h cell culture supernatants were analyzed according to the protocol in Example 9. […]"}, "[3]": {"system": "Normal Human Dermal Fibroblasts (NHDF)", "assay": "hMCP-1 N1pE/hMCP-1 ratio by ELISA in OSM+IL1β stimulated NHDF treated with QCI", "type": "cell-based", "settings": "10 μM QCI", "method": "as §1, with “Following several washes with TBS-T a colour reaction with commercially available HRP substrate TMB (SureBlue Reserve TMB Microwell Peroxidase Substrate (1-component), KPL, Gaithersburg, USA) was performed (30 minutes incubation at room temperature in the dark) and subsequently stopped by the addition of 1,2N H2SO4.” left out\nQuantitative detection of hMCP-1 and hMCP-1 N1pE occurred according to the protocol in […]. […] The cell culture supernatants were analyzed at different time points in order to examine time dependency of hMCP-1 and hMCP-1 N1pE secretion. […]\nNHDF have been stimulated with 10 ng/ml OSM, IL1β and simultaneously treated with or without 10 μM QCI for 6 days. […] In order to examine the influence of QCI on hMCP-1 and hMCP-1 N1pE level, the cell culture supernatants were analyzed at different time points according to the ELISA protocol in Example 7."}},
  "data": [
    {"smiles": "COc1ccc(NC(=S)NCCCn2ccnc2)cc1OC.Cl", "note": "[QCI, 1-(3-(1H-imidazol-1-yl)propyl)-3-(3,4-dimethoxyphenyl)thiourea hydrochloride]", "values": [
      {"measurement": "amount of hMCP-1 N1pE", "setting": "[1]", "value": "reduced by QCI in a concentration dependent manner"},
      {"measurement": "amount of total hMCP-1", "setting": "[1]", "value": "nearly unaffected"},
      {"measurement": "ratio of hMCP-1 N1pE/hMCP-1", "setting": "[1]", "value": "decreases with increasing inhibitor concentrations"},
      {"measurement": "amount of mMCP-1 N1pE", "setting": "[2]", "value": "reduced by QCI in a concentration dependent manner"},
      {"measurement": "amount of total mMCP-1", "setting": "[2]", "value": "remains unaffected"},
      {"measurement": "ratio of mMCP-1 N1pE/mMCP-1", "setting": "[2]", "value": "decreases with increasing inhibitor concentrations"},
      {"measurement": "hMCP-1 N1pE level after 1-2 days of OSM+IL1β stimulation", "setting": "[3]; 1-2 days", "value": "below the limit of quantitation"},
      {"measurement": "hMCP-1 N1pE level", "setting": "[3]; OSM+IL1β", "value": "decreased"},
      {"measurement": "ratio of hMCP-1 N1pE/hMCP-1", "setting": "[3]; OSM+IL1β", "value": "about 0,35"}
    ]}
  ]
}
